Experimental data: patent EP4796561A1, “ANTI-SYNAPTOTAGMIN 2 ANTIBODY” (Jiksak Bioengineering, Inc., priority 2023, dated 2025)
Values belong to the molecule of their own block, whether it stands above or below them. Where a SMILES comes first, the peptide text is derived from it. [ ]: non-standard residue; d: D form. The star is where a group is joined. Dolaproine = CO[C@@H]([C@@H]1CCCN1)[C@@H](C)C(=O)O; Dil = CC[C@H](C)[C@H](NC)[C@@H](CC(=O)O)OC; X1 = C[C@@H](N*)[C@@H](O)c1ccccc1; NMeV = CN[C@H](C(=O)O)C(C)C

How the values were obtained:
[1] = tested on: Human iPS-derived motor neuron; assay: Pharmacological effect of antibody-MMAE conjugates: axonal amount (Tuj1 staining) in motor neuron neurospheres with LRRTM2 bead-induced presynapse; type: cell-based; settings: normalized to Cont. IgG-MMAE set to 100%; 1µg/mL, 30 minutes with 100µM 4-aminopyridine, then 24 hours culture; Tuj1 brightness
Description: Human iPS-derived motor neuron (40HU-005-2M; ixcells biotechnologies) was thawed using Dead Cell Removal kit (Veritas) according to the protocol of the kit. The cells after thawing were plated in 96-well plates (V-bottom) at a density of 2×10^4 cells/well and cultured in the motor neuron culture medium (Motor Neuron Maintenance Medium; ixcells biotechnologies) for 1 week to prepare neurospheres. The prepared neurospheres were selected based on size and roundness, and those satisfying this criterion were used in the subsequent experiments.
After coating a 96-well EZVIEW (registered trademark) culture plate LB (AGC Technoglass Co., Ltd.) with poly-D-lysine and Geltrex (registered trademark) Matrix (Thermo Fisher Scientific), the selected neurospheres were then plated and cultured for 20 days. As the medium, the above-described motor neuron culture medium was used first, and medium change with the same medium was performed on the second day of culture. Thereafter, medium was changed three times per week using neuronal medium (Neurobasal plus medium (B27 plus supplement (Thermo Fisher Scientific), 20ng/mL BDNF, 20ng/mL GDNF, and penicillin-streptomycin were added)). Each medium change was performed at 50 µL/well.
Microbeads coated with the extracellular domain of LRRTM2 (active beads) were prepared as disclosed in WO2021/006075. […]

[2] = target: human Synaptotagmin 2 expressed on HEK293T cells (human) (UniProt Q8N9I0); assay: flow cytometry on HEK293T cells expressing human SYT2 at 0.01 µg/mL antibody; reference is the polyclonal rabbit anti-SYT2 N-terminal antibody (Synaptic Systems 105 223)
Sequence of UniProt Q8N9I0 (Q8N9I0 whole entry): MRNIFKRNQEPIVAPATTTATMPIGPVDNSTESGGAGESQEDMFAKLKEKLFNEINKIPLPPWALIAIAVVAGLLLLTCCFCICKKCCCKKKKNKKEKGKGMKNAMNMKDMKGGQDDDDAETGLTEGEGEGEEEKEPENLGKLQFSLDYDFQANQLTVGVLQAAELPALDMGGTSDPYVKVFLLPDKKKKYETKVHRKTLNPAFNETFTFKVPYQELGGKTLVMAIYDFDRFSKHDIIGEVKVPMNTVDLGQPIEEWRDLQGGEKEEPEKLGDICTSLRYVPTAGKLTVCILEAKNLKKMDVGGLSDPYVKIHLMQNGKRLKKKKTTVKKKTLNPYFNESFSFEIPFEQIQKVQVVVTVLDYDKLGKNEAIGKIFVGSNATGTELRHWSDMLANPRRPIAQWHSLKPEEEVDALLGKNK

Molecule: CC[C@H](C)[C@@H]([C@@H](CC(=O)N1CCC[C@H]1[C@H](OC)[C@@H](C)C(=O)N[C@H](C)[C@@H](O)c1ccccc1)OC)N(C)C(=O)[C@@H](NC(=O)[C@@H](NC)C(C)C)C(C)C [MMAE, monomethyl auristatin E] (H-[NMeV]V[Dil][Dolaproine]-X1)
relative amount of axon [1]: no significant differences

fluorescence intensity relative to the control polyclonal antibody [2]: 2 fold
B1: monoclonal antibody according to the present invention (anti-Synaptotagmin 2 intravesicular domain (N-terminal) monoclonal antibody) (antibody, V domains shown)
VH: EVQLQQSGAELVRPGASVKLSCTASGFNIKDDYVHWVKQRPEQGLEWIGWIDPENGDTEYASKFQGKATITADASSNAAYLQLSSLTSEDTAAYYCTTDYYNNPFAYWGQGTLVTVSA
VL: QIVLTQSPAIMSASPGEKVTITCSASSSVSYMHWFQQKPGTSPKLWIYSTSKLASGVPVRFSGSGSGTSYSLTISRMEAEDAATYYCQQRSSYPFTFGSGTKLEIK
